Consider four molecules from patent publication US7241757B2, “Amidino derivatives and their use as thrombin inhibitors” (AstraZeneca AB, priority 2000, dated 2007).

Each structure is given as a SMILES string.

In one series the target is T1, Human thrombin (Homo sapiens, UniProt P00734).
T1 construct: conversion of the proenzyme prothrombin to the active enzyme thrombin; purchased Sigma Chem. Co T 6769
As to the kind of experiment: Test A: Determination of Thrombin Clotting Time (TT). The note with it: concentration of inhibitor that doubles the thrombin clotting time for human plasma. The series is classed as biochemical. On the procedure: Determination of Thrombin Clotting Time (TT)
The inhibitor solution (25 μL) was incubated with plasma (25 μL) for three minutes. Human thrombin (T 6769; Sigma Chem. Co) in buffer solution, pH 7.4 (25 μL) was then added and the clotting time measured in an automatic device (KC 10; Amelung).
The clotting time in seconds was plotted against the inhibitor concentration, and the IC50TT was determined by interpolation.
IC50TT is the concentration of inhibitor in the test that doubles the thrombin clotting time for human plasma.

For series [1] the following is noted: rat, in vivo. An excerpt: Determination of Thrombin Time Ex Vivo
The inhibition of thrombin after oral or parenteral administration of the compounds of formula I, dissolved in ethanol:Solutol™:water (5:5:90), were examined in conscious rats which, one or two days prior to the experiment, were equipped with a catheter for blood sampling from the carotid artery. On the experimental day blood samples were withdrawn at fixed times after the administration of the compound into plastic tubes containing 1 part sodium citrate solution (0.13 mol per L) and 9 parts of blood. The tubes were centrifuged to obtain platelet poor plasma. The plasma was used for determination of thrombin time as described below.
The citrated rat plasma, 100 μL, was diluted with a saline solution, 0.9%, 100 μL, and plasma coagulation was started by the addition of human thrombin (T 6769, Sigma Chem Co, USA) in a buffer solution, pH 7.4, 100 μL. The clotting time was measured in an automatic device (KC 10, Amelumg, Germany). […]
Based on the estimated plasma concentrations of the active thrombin inhibitor (which assumes that thrombin time prolongation is caused by the aforementioned compound) in the rat, the area under the curve after oral and/or parenteral administration of the corresponding prodrug compound of formula I was calculated (AUCpd) using the trapezoidal rule and extrapolation of data to infinity. […]

As a reminder, the IC50 is the point on the concentration scale where inhibition reaches its midpoint. Read a high IC50 as weaker potency in that assay. Consider `N=C(N)c1ccc(CNC(=O)C2CCN2C(=O)C2(O)CCOc3c(OC(F)F)cc(Cl)cc32)cc1` (single isomer, unassigned) [Example 8, (S)- or (R)-4-Hydroxy-6-chloro-8-difluoromethoxychroman-4-yl-C(O)-Aze-Pab×HOAc], for which the IC50 against Human thrombin was < 100 nM.
Regarding `CON=C(N)c1ccc(CNC(=O)[C@@H]2CCN2C(=O)C2(O)CCOc3c(OC(F)F)cc(Cl)cc32)cc1` (single isomer, unassigned) [Example 9, (S)- or (R)-4-Hydroxy-6-chloro-8-difluoromethoxychroman-4-yl-C(O)-Aze-Pab(OMe)], the “oral and/or parenteral bioavailability as the corresponding active inhibitor (free amidine)” value in series [1] was “exhibit oral and/or parenteral bioavailability”.
In the case of `N=C(N)c1ccc(CNC(=O)C2CCN2C(=O)C2(O)CCOc3c(OC(F)(F)F)cc(Cl)cc32)cc1` (stereo not shown) [Example 6, 4-Hydroxy-6-chloro-8-trifluoromethoxychroman-4-yl-C(O)-Aze-Pab], the IC50 on Human thrombin is < 100 nM.
With `CON=C(N)c1ccc(CNC(=O)[C@@H]2CCN2C(=O)C2(O)CCOc3c(OC(F)(F)F)cc(Cl)cc32)cc1` (stereo partly shown) [Example 7, 4-Hydroxy-6-chloro-8-trifluoromethoxychroman-4-yl-C(O)-Aze-Pab(OMe)], in series [1], the “oral and/or parenteral bioavailability as the corresponding active inhibitor (free amidine)” value is reported as “exhibit oral and/or parenteral bioavailability”.
